The values that follow come from patent US20100056508A1, “AMINE DERIVATIVES AND THEIR USE IN BETA-2-ADRENORECEPTOR MEDIATED DISEASES” (ASTRAZENECA AB, priority 2006, published 2010).

Assay [1] addresses T1, recombinant human Dopamine Subtype D2s receptors (Homo sapiens, UniProt P14416).
T1 construct: purchased Perkin Elmer
Description: Dopamine D2 selectivity assay, [3H]-spiperone binding to membranes. The settings on record: inhibition of [3H]-spiperone binding, read-out: D2 bind pIC50 (converted). The essentials: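 Human D2s receptor membranes incubated 2 h at room temperature with 0.16 nM [3H]-spiperone and test compound in HEPES buffer pH 7.4 (120 mM NaCl, 0.1% gelatin). Non-specific binding defined with 10 μM haloperidol; filter-bound radioactivity counted, pIC50 from four-parameter logistic fit.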

Assay [2] addresses T2, recombinant human adrenergic beta 1 receptors (Homo sapiens, UniProt P08588).
T2 construct: purchased Euroscreen
As to the kind of experiment: Adrenergic β1 selectivity assay, [125I]-Iodocyanopindolol binding to membranes. The settings on record: inhibition of [125I]-Iodocyanopindolol binding, read-out: β1 bind pIC50 (converted). An outline of the steps: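 Displacement of [^125I]-Iodocyanopindolol (0.036 nM final) from human β1 receptor membranes, 2 hours at room temperature, pH 7.4 HEPES/EDTA/NaCl buffer. After filtration, scintillation counting; NSB set with 10 μM propranolol and subtracted. Four-parameter logistic fitting gave pIC50.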

A further assay concerns the target T3, Adrenergic β2 (Homo sapiens, UniProt P07550).
T3 construct: Adherent H292 cells were removed from tissue culture flasks; endogenous in cells; host or cells: H292 cells
As to the kind of experiment: Adrenergic β2 mediated cAMP production in H292 cells (AlphaScreen cAMP detection). Format: cell-based. Details: key to β2 Int Act: fraction of formoterol maximum activity (formoterol = 1). The settings on record: for β2 Int Act: Intrinsic Activity as a fraction relative to the maximum activity determined for formoterol; for EC50: cAMP production, 60 minutes at room temperature, 300 μM rolipram, read-out: β2 pEC50 (converted). The essentials:
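H292 cells pre-treated 10 min with rolipram (300 μM final), then given agonist for 60 min at room temperature in HBSS/10 mM HEPES pH 7.4, 1.6% DMSO final. Lysate cAMP measured by AlphaScreen against a cAMP standard curve. Four-parameter fit gives pEC50; intrinsic activity relative to formoterol maximum.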
On the technique in general: Cyclic AMP is a second messenger, typically raised through Gs and lowered through Gi signalling.

T2 sequence (P08588 whole entry): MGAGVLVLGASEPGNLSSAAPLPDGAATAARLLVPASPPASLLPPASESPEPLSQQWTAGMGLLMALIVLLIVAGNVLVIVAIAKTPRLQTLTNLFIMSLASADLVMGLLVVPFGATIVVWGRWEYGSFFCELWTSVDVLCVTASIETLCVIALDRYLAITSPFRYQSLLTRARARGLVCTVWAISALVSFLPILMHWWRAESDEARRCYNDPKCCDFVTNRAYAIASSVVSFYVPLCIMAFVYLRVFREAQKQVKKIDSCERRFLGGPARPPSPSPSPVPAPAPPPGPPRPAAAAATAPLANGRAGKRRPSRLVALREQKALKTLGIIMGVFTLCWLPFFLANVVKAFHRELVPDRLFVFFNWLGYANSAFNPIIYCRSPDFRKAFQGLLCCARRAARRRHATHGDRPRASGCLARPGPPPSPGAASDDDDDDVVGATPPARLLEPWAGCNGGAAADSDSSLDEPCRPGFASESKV
T3 sequence (P07550 whole entry): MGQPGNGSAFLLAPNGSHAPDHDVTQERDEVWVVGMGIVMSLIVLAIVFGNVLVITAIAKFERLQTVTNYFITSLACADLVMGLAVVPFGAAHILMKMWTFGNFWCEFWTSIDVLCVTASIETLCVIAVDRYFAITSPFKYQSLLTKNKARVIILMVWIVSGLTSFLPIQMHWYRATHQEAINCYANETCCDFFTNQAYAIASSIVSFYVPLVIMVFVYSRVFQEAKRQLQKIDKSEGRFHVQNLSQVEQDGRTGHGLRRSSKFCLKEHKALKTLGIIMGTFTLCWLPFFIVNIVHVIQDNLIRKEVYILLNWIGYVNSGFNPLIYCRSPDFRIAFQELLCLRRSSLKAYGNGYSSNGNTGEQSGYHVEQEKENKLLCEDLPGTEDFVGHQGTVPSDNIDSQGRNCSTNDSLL
T1 sequence (P14416 1-414 isoform P14416-2): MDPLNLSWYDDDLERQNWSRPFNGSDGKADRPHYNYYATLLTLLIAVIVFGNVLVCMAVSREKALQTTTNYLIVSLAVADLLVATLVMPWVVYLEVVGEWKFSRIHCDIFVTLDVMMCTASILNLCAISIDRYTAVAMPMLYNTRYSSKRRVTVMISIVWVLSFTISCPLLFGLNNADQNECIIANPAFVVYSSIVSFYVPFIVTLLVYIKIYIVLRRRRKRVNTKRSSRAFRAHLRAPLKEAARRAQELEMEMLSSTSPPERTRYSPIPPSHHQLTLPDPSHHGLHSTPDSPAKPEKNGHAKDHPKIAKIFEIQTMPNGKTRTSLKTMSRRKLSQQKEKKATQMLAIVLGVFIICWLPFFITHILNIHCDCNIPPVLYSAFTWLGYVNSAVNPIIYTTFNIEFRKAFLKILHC

Take `O=C1COc2c(CCNCCN(C(=O)CCNCCc3cccc(Cl)c3)C3CCCCC3)ccc(O)c2N1` [Example 27, 3-(3-Chlorophenethylamino)-N-cyclohexyl-N-(2-(2-(5-hydroxy-3-oxo-3,4-dihydro-2H-benzo[b][1,4]oxazin-8-yl)ethylamino)ethyl)propanamide bis(trifluoroacetate)]: the IC50 in assay [1] is 0.251 µM; in assay [2], 3.16 µM. Further, the “β2 Int Act” value on Adrenergic β2 is given as 0.89. At Adrenergic β2, the EC50 was 0.002 µM.

Regarding `O=C1COc2c(CCNCCN(C(=O)CCNCCc3cccc(Cl)c3Cl)C3CCCCC3)ccc(O)c2N1` [Example 29, N-Cyclohexyl-3-(2,3-dichlorophenethylamino)-N-(2-(2-(5-hydroxy-3-oxo-3,4-dihydro-2H-benzo[b][1,4]oxazin-8-yl)ethylamino)ethyl)propanamide bis(trifluoroacetate)], in assay [1], the IC50 was 0.1 µM. The IC50 in assay [2] is 3.16 µM. Further, at Adrenergic β2, the “β2 Int Act” value was found to be 0.91 and the EC50 is 0.00501 µM.

On to `O=C1COc2c(CCNCCN(C(=O)CCNCCc3ccc(Cl)c(Cl)c3)C3CCCCC3)ccc(O)c2N1` [Example 30, N-Cyclohexyl-3-(3,4-dichlorophenethylamino)-N-(2-(2-(5-hydroxy-3-oxo-3,4-dihydro-2H-benzo[b][1,4]oxazin-8-yl)ethylamino)ethyl)propanamide bis(trifluoroacetate)], for which the IC50 in assay [1] is 0.0501 µM. Besides, the IC50 in assay [2] was 2.51 µM. For the same compound, at Adrenergic β2, the “β2 Int Act” value amounted to 0.92 and the EC50 was 0.00398 µM.

For the compound `O=C1COc2c(CCNCCN(C(=O)CCNCCc3ccc(Cl)cc3Cl)C3CCCCC3)ccc(O)c2N1` [Example 31, N-Cyclohexyl-3-(2,4-dichlorophenethylamino)-N-(2-(2-(5-hydroxy-3-oxo-3,4-dihydro-2H-benzo[b][1,4]oxazin-8-yl)ethylamino)ethyl)propanamide bis(trifluoroacetate)], the IC50 in assay [1] is 0.1 µM; in assay [2], 3.16 µM. The “β2 Int Act” value on Adrenergic β2 turned out to be 0.94. Besides, on Adrenergic β2, the EC50 was 0.00631 µM.

`O=C1COc2c(CCNCCN(C(=O)CCNCCc3ccc(Cl)cc3)C3CCCCC3)ccc(O)c2N1` [Example 32, 3-(4-Chlorophenethylamino)-N-cyclohexyl-N-(2-(2-(5-hydroxy-3-oxo-3,4-dihydro-2H-benzo[b][1,4]oxazin-8-yl)ethylamino)ethyl)propanamide bis(trifluoroacetate)]: the IC50 was 0.2 µM in assay [1] and 2 µM in assay [2]. For the same compound, the “β2 Int Act” value at Adrenergic β2 turned out to be 1.03. The EC50 at Adrenergic β2 is 0.00316 µM.

On to `O=C1COc2c(CCNCCN(C(=O)CCNCCc3cc(F)cc(F)c3)C3CCCCC3)ccc(O)c2N1` [Example 35, N-Cyclohexyl-3-(3,5-difluorophenethylamino)-N-(2-(2-(5-hydroxy-3-oxo-3,4-dihydro-2H-benzo[b][1,4]oxazin-8-yl)ethylamino)ethyl)propanamide bis(trifluoroacetate)], for which the IC50 in assay [1] is 0.251 µM. For the same compound, in assay [2], the IC50 is over 10 µM. Besides, on Adrenergic β2, the “β2 Int Act” value is listed as 0.87 and the EC50 is 0.00158 µM.

For the compound `O=C1COc2c(CCNCCN(C(=O)CCNCCc3cccc(F)c3F)C3CCCCC3)ccc(O)c2N1` [Example 36, N-Cyclohexyl-3-(2,3-difluorophenethylamino)-N-(2-(2-(5-hydroxy-3-oxo-3,4-dihydro-2H-benzo[b][1,4]oxazin-8-yl)ethylamino)ethyl)propanamide bis(trifluoroacetate)], the figures for the IC50 in assay [1] and in assay [2] were 0.631 µM and 3.16 µM, respectively. The “β2 Int Act” value on Adrenergic β2 stood at 0.91. Also, on Adrenergic β2, the EC50 was 0.00126 µM.

`O=C1COc2c(CCNCCN(C(=O)CCNCCc3ccc(F)c(Cl)c3)C3CCCCC3)ccc(O)c2N1` [Example 37, 3-(3-Chloro-4-fluorophenethylamino)-N-cyclohexyl-N-(2-(2-(5-hydroxy-3-oxo-3,4-dihydro-2H-benzo[b][1,4]oxazin-8-yl)ethylamino)ethyl)propanamide bis(trifluoroacetate)]: the IC50 in assay [1] was 0.1 µM; in assay [2], 1 µM. On Adrenergic β2, the “β2 Int Act” value turned out to be 0.89. Besides, the EC50 at Adrenergic β2 is 0.002 µM.

In the case of `O=C1COc2c(CCNCCN(C(=O)CCNCCc3cc(F)ccc3F)C3CCCCC3)ccc(O)c2N1` [Example 38, N-Cyclohexyl-3-(2,5-difluorophenethylamino)-N-(2-(2-(5-hydroxy-3-oxo-3,4-dihydro-2H-benzo[b][1,4]oxazin-8-yl)ethylamino)ethyl)propanamide bis(trifluoroacetate)], the IC50 in assay [1] is 0.126 µM. In addition, the IC50 in assay [2] was over 5.01 µM. On Adrenergic β2, the “β2 Int Act” value amounted to 0.98 and the EC50 was 0.00126 µM.

In the case of `O=C1COc2c(CCNCCN(C(=O)CCNCCc3cccc(Cl)c3F)C3CCCCC3)ccc(O)c2N1` [Example 39, 3-(3-Chloro-2-fluorophenethylamino)-N-cyclohexyl-N-(2-(2-(5-hydroxy-3-oxo-3,4-dihydro-2H-benzo[b][1,4]oxazin-8-yl)ethylamino)ethyl)propanamide bis(trifluoroacetate)], the IC50 in assay [1] was 0.1 µM; in assay [2], 1.26 µM. Moreover, on Adrenergic β2, the “β2 Int Act” value amounted to 0.98. Further, at Adrenergic β2, the EC50 was 0.00158 µM.

In the case of `Cc1cc(CCNCCC(=O)N(CCNCCc2ccc(O)c3c2OCC(=O)N3)C2CCCCC2)ccc1F` [Example 40, N-Cyclohexyl-3-(4-fluoro-3-methylphenethylamino)-N-(2-(2-(5-hydroxy-3-oxo-3,4-dihydro-2H-benzo[b][1,4]oxazin-8-yl)ethylamino)ethyl)propanamide bis(trifluoroacetate)], in assay [1], the IC50 was 0.398 µM. Moreover, the IC50 in assay [2] was over 7.94 µM. Further, on Adrenergic β2, the “β2 Int Act” value was 0.96 and the EC50 is 0.251 µM.

Regarding `O=C1COc2c(CCNCCN(C(=O)CCNCCc3cc(F)cc(Cl)c3)C3CCCCC3)ccc(O)c2N1` [Example 41, 3-(3-Chloro-5-fluorophenethylamino)-N-cyclohexyl-N-(2-(2-(5-hydroxy-3-oxo-3,4-dihydro-2H-benzo[b][1,4]oxazin-8-yl)ethylamino)ethyl)propanamide (trifluoroacetate)], in assay [1], the IC50 was 0.2 µM. Further, the IC50 in assay [2] was over 7.94 µM. At Adrenergic β2, the “β2 Int Act” value is 0.95 and the EC50 is 0.00316 µM.

Consider `O=C1COc2c(CCNCCN(C(=O)CCNCCc3ccc(F)c(F)c3)C3CCCCC3)ccc(O)c2N1` [Example 42, N-Cyclohexyl-3-(3,4-difluorophenethylamino)-N-(2-(2-(5-hydroxy-3-oxo-3,4-dihydro-2H-benzo[b][1,4]oxazin-8-yl)ethylamino)ethyl)propanamide bis(trifluoroacetate)], for which the IC50 in assay [1] was 0.316 µM. For the same compound, the IC50 in assay [2] is 3.16 µM. On Adrenergic β2, the “β2 Int Act” value worked out at 0.9 and the EC50 was 0.002 µM.

Consider `O=C1COc2c(CCNCCN(C(=O)CCNCCc3ccc(C(=O)O)cc3)C3CCCCC3)ccc(O)c2N1` [Example 43, 4-(2-(3-(Cyclohexyl(2-(2-(5-hydroxy-3-oxo-3,4-dihydro-2H-benzo[b][1,4]oxazin-8-yl)ethylamino)ethyl)amino)-3-oxopropylamino)ethyl)benzoic acid bis(trifluoroacetate)], for which, in assay [1], the IC50 is over 10 µM. Also, the IC50 in assay [2] is over 10 µM. Also, at Adrenergic β2, the “β2 Int Act” value came to 0.97 and the EC50 is 0.0316 µM.

For the compound `CCCC[C@@H](C)N(CCNCCc1ccc(O)c2c1OCC(=O)N2)C(=O)CCNCCc1cccc(Cl)c1` [Example 44, (R)-3-(3-Chlorophenethylamino)-N-(hexan-2-yl)-N-(2-(2-(5-hydroxy-3-oxo-3,4-dihydro-2H-benzo[b][1,4]oxazin-8-yl)ethylamino)ethyl)propanamide bis(trifluoroacetate)], the IC50 was 0.0794 µM in assay [1] and 1.26 µM in assay [2]. Moreover, on Adrenergic β2, the “β2 Int Act” value stood at 0.89. At Adrenergic β2, the EC50 was 0.002 µM.

`CCCC[C@@H](C)N(CCNCCc1ccc(O)c2c1OCC(=O)N2)C(=O)CCNCCc1ccc(Cl)cc1` [Example 45, (R)-3-(4-Chlorophenethylamino)-N-(hexan-2-yl)-N-(2-(2-(5-hydroxy-3-oxo-3,4-dihydro-2H-benzo[b][1,4]oxazin-8-yl)ethylamino)ethyl)propanamide bis(trifluoroacetate)]: the IC50 in assay [1] is 0.0794 µM. Moreover, the IC50 in assay [2] is 1.26 µM. Besides, on Adrenergic β2, the “β2 Int Act” value is reported as 0.89 and the EC50 is 0.00501 µM.

Take `CCCC[C@@H](C)N(CCNCCc1ccc(O)c2c1OCC(=O)N2)C(=O)CCNCCc1ccccc1Cl` [Example 46, (R)-3-(2-Chlorophenethylamino)-N-(hexan-2-yl)-N-(2-(2-(5-hydroxy-3-oxo-3,4-dihydro-2H-benzo[b][1,4]oxazin-8-yl)ethylamino)ethyl)propanamide bis(trifluoroacetate)]: the IC50 in assay [1] was 0.0158 µM. Besides, the IC50 in assay [2] is 1.58 µM. Moreover, at Adrenergic β2, the “β2 Int Act” value came out at 0.89 and the EC50 was 0.00126 µM.
